According to the METLIN SMRT retention time set (Domingo-Almenara et al. 2019):

Test: gradient 5% acetonitrile 3 min, to 50% in 2 min, to 85% in 15 min, held 3 min, 100 µL/min
Conditions: column: Zorbax Extend-C18 2.1 x 50 mm; eluents: water / acetonitrile, 0.1% formic acid
Procedure, shortened: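 Standards, all pure, were combined into mixtures of ~100 molecules and run at 100 μL/min on a Zorbax Extend-C18 column (2.1 × 50 mm, 1.8 μm) with water and acetonitrile, each containing 0.1% formic acid. A coupled quadrupole time-of-flight mass spectrometer operated in positive and negative ionization mode. Retention time values come from computationally picked adduct peaks, each inspected manually.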

RP-LC retention time	Compound
863 s	CCOc1cccc(-c2noc(Cn3ccn(-c4ccccc4OC)c(=O)c3=O)n2)c1
1050 s	CCCS(=O)(=O)c1nc2ccc(NS(=O)(=O)c3ccc(C(C)C)cc3)cc2s1
680 s	CSc1nnc(-c2nn(C)c3c2CN(C(=O)c2ccccc2)CC3)n1C
808 s	COc1ccc(-c2cc(C(=O)N(C)C)c(C)n2C)cc1
1310 s	Cc1ccccc1NC(=O)c1cc(C(C)(C)C)n2nccc2n1
733 s	Cc1cc(N2CCOCC2)nc(N2CCN(S(=O)(=O)c3cc(C)c(C)cc3C)CC2)n1
680 s	O=C(Nc1nccs1)C1CCN(S(=O)(=O)c2cc(C(=O)N3CCOCC3)cs2)CC1
1080 s	Cc1cc(=O)n(CC(=O)Nc2cccc(Cl)c2)c(-c2ccccc2)n1
868 s	Cc1ccc2[nH]cc(CCNC(=O)CCC(=O)N3Cc4cccn4-c4ccccc43)c2c1
738 s	Cc1cc(F)ccc1NC(=O)C1CCN(C(=O)C2Sc3ccccc3NC2=O)CC1 (configuration not stated)
822 s	CC1=C(c2ccc(Cl)cc2)S(=O)(=O)N=C1N1CCCN(C(=O)C(C)C)CC1
1100 s	CCc1nn2c(N3CCN(c4cccc(C)n4)CC3)cc(C)nc2c1-c1ccccc1
620 s	NC(=O)CCC(C(=O)O)N1C(=O)c2ccc(O)cc2C1=O (configuration not stated)
853 s	O=C1CCCN1Cc1nc(-c2ccc(F)c(Cl)c2)no1
610 s	COCc1noc([C@@H]2CN(C(=O)C3CC=CCC3)C[C@H]2C(N)=O)n1 (some centres not stated)
914 s	COc1ccccc1C(=O)Nc1nnc(SCc2nnc(-c3ccccc3)o2)s1
1060 s	CSc1ccc(-c2nc3cnccn3c2Nc2cccc(C)c2C)cc1
726 s	CC(C)n1cnc(S(=O)(=O)N2CCCC(C(=O)Nc3cccc(F)c3)C2)c1 (configuration not stated)
1040 s	O=S(=O)(c1ccc(-c2cnc(C3CCC3)o2)s1)N1CCN(c2ncccn2)CC1
740 s	CCCNC(=O)c1n[nH]c2c1CC(C)CC2 (configuration not stated)
925 s	COc1ccc(OCc2noc(CNC(=O)c3oc4cc(OC)ccc4c3C)n2)cc1
1180 s	CCCOc1nc2ccccc2nc1N1CCCC(C(=O)NCc2ccccc2)C1 (configuration not stated)

RP-LC retention time	Compound
580 s	O=C(NCc1ccccc1)N1CCC(Nc2cccnc2)C1 (configuration not stated)
914 s	CC(C)S(=O)(=O)N1CC(c2nc(CCOCc3ccccc3)no2)C1
616 s	Cc1ccn2cc(-c3ccc(NC(=O)C(C)(C)C)cc3)nc2n1
1010 s	CCc1nc(-c2cccc(-c3noc(CNC(=O)c4ccccc4)n3)c2)cs1
602 s	O=C(c1ccc2ccccc2n1)N1CCN(c2cc(-c3cccnc3)[nH]n2)CC1
772 s	COc1ccc(NC(=O)Cn2c(=O)c3cc(C4CC4)nn3c3ncccc32)c(OC)c1
677 s	COc1ccc(C(=O)N(C)CC2(C)CCOCC2)cc1OC
997 s	O=S(=O)(c1cccs1)N1CCN(c2nc3c(F)cc(F)cc3s2)CC1
758 s	O=C(NCCC1CCN(C(=O)Nc2cc(F)ccc2F)CC1)c1ccco1
699 s	CC(C)CN1CCN(C(=O)c2cn(-c3ccc(-c4nc(C(C)(C)C)no4)cn3)cn2)CC1
615 s	O=C(COc1ccccc1)N1CCN(c2nc(CN3CCOCC3)cs2)CC1
521 s	O=C(c1ccsc1)N1CCN(c2ccccn2)CC1
1130 s	CC(C)n1cc(C2=CCN(S(=O)(=O)Cc3cccc(Cl)c3)CC2)c2cccnc21
646 s	Cc1c(Cl)ccc2c(=O)c3c([nH]c12)CCN(CC(=O)Nc1ccc2c(c1)OCCO2)C3
892 s	Cn1c(=O)c(N2CCC(C(=O)NCCc3c[nH]c4ccc(Cl)cc34)CC2)nc2ccccc21
627 s	COCCNC(=O)C1CCCN1S(=O)(=O)c1cc2c(cc1Cl)NC(=O)CO2 (configuration not stated)
816 s	CN1CCCCCCN(C(=O)c2cccn2C)[C@H]2CCC[C@H]2C1=O
592 s	CCN1CCN(CCCNC(=O)c2oc3ccc4c(c3c2C)C(O)CC(C)(C)O4)CC1 (configuration not stated)
902 s	O=C(c1cc(F)ccc1F)N1CCC2(CC1)N=C(c1ccc(Cl)cc1)NO2
578 s	CCCNC(=O)Cn1c(CC)nc2ccccc21
959 s	CCOc1cccc(C2c3[nH]c4ccccc4c3CCN2C(=O)c2ccncc2)c1 (configuration not stated)
684 s	COc1ccccc1NC(=O)C1CCN(c2cc(N3CCSCC3)ncn2)CC1

RP-LC retention time	Compound
731 s	CCCn1cnc2cc(-c3noc(C(C)NS(=O)(=O)c4ccc(C)cc4)n3)ccc21 (configuration not stated)
945 s	CCS(=O)(=O)N1CCCc2cc(C(=O)NCc3ccco3)ccc21
853 s	CC(C)n1cnc2ccc(-c3noc(COc4ccc(Cl)cc4)n3)cc21
685 s	CC(C)n1nccc1-c1nnc(NC(=O)C2CC(=O)N(c3ccc(F)cc3)C2)o1 (configuration not stated)
1220 s	O=C(Cc1cccs1)N1CCc2c([nH]c3ccccc23)C1c1ccc(Cl)cc1 (configuration not stated)
752 s	COc1ccc(NC(=O)C2CC(=O)N(c3n[nH]c4cccc(F)c34)C2)cc1Cl (configuration not stated)
673 s	CCOC(=O)C1=C(CN2CCC(C(=O)OCC)CC2)NC(=O)NC1c1ccc(Cl)cc1 (configuration not stated)
886 s	CCOc1cccc(CNC(=O)c2cn3cc(Cl)ccc3n2)c1
722 s	CCn1cc(CN2CCC(C(=O)NCc3ccco3)CC2)c2cc(Cl)ccc21
693 s	O=C1NC(C(=O)Nc2ccc(F)c(F)c2)Cn2cccc21 (configuration not stated)
725 s	O=C(C1CCCC1)N1CCCC1c1nc(C2CCOCC2)no1 (configuration not stated)
756 s	O=C(CCc1c(-c2ccc(Cl)cc2)nc2ccccn12)NCCC1=CCCCC1
919 s	COc1ccc(OC)c(NC(=O)N(C)CCc2noc(COc3ccc(F)cc3)n2)c1
653 s	O=C(Cc1nnc2c(-c3nc(C4CC4)no3)cccn12)N1CCSCC1
678 s	COc1ccc(-c2cn3c(CCC(=O)Nc4ccc5c(c4)OCCO5)csc3n2)cc1
888 s	CC1=C(c2ccc(C)cc2)S(=O)(=O)N=C1N1CCCN(C(=O)CCC(C)C)CC1
603 s	O=C(c1csc(C(=O)N2CCCC2)n1)N1CCN(Cc2ccccc2)CC1
709 s	Cc1ccnc(N2CCCC(C(=O)NCc3ccc(F)cc3)C2)n1 (configuration not stated)
711 s	O=C(c1ccc(C(F)(F)F)s1)N1CCN(c2nnc3ccccn23)CC1
711 s	CC(C)c1ccc2c(c1)-c1ccccc1S(=O)(=O)N2CC(=O)NCc1cccnc1
1080 s	COc1ccc(NC(=O)c2noc3c2CCCCC3)c(OC)c1
855 s	O=C(C1CC1)N1CCc2sc(S(=O)(=O)NCc3ccccc3Cl)cc2C1

Compound	RP-LC retention time
CC(NC(=O)c1c(O)c2sccc2n(Cc2ccccc2)c1=O)c1ccccc1 (configuration not stated)	1350 s
